Measured values as given in ChEMBL document CHEMBL1201862, “PubChem BioAssay data set” (2004).
Calls of active or inactive are those of the source.

Experiments:
[1] = HepG2 cell cytotoxicity, dose response, cytotoxicity control, ATP luminescence, cherry-pick, activator set 2 (AID 1053143); type: functional, cell-based
[2] = miR-122 activators in hepatoma reporter cells, dose response, cell-based, Huh7 psiCHECK-miR122, Renilla luciferase, cherry-picked (AID 651956); type: functional;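 also: huh7 hepatoma cells stably carrying a psiCHECK-2 miR-122 sensor plasmid; renilla luciferase signal reporting endogenous miR-122 activity after 48 h compound exposure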
[3] = HEK293T cytotoxicity, dose response, cytotoxicity control for miR-122 modulator project, cell-based, inhibitor set, cherry-pick, set 2 (AID 720697); type: functional
[4] = HEK293T cytotoxicity, dose response, cytotoxicity control for miR-122 modulator project, cell-based, activator set, cherry-pick (AID 720690); type: functional;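 also: HEK293T human cells scored for general mammalian cytotoxicity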
[5] = Luminescence Cell-Based Dose Confirmation HTS to Identify Activators of 5'UTR Stem-Loop Driven Alpha-Synuclein mRNA Translation in H4 Neuroglioblastoma Cells. [Related pubchem assays: 1829 (Project Summary), 1814 (Primary HTS)]; type: functional
[6] = Luminescence Cell-Based Dose Response HTS to Identify Activators of Luciferase Translation or Activity in H4 […] Cells. [Related pubchem assays: 1829 (Project Summary), 1814 (Primary HTS)]; type: functional
H4 = assay: Luminescence Cell-Based Dose Response HTS to Identify Activators of 5'UTR Stem-Loop Driven Prion Protein mRNA Translation in H4 Neuroglioblastoma Cells. [Related pubchem assays: 1829 (Project Summary), 1814 (Primary HTS)]; type: functional; conditions: Homo sapiens
[7] = molecular target: SWI/SNF-related matrix-associated actin-dependent regulator of chromatin subfamily A member 2 (Homo sapiens, UniProt P51531); assay: Luminescence-based cell-based high throughput dose response assay to identify activators of the function of SWI/SNF related, matrix associated, actin dependent regulator of chromatin, subfamily a, member 2 (SMARCA2, BRM).; type: functional
Chain of SWI/SNF-related matrix-associated actin-dependent regulator of chromatin subfamily A member 2 (P51531 whole entry): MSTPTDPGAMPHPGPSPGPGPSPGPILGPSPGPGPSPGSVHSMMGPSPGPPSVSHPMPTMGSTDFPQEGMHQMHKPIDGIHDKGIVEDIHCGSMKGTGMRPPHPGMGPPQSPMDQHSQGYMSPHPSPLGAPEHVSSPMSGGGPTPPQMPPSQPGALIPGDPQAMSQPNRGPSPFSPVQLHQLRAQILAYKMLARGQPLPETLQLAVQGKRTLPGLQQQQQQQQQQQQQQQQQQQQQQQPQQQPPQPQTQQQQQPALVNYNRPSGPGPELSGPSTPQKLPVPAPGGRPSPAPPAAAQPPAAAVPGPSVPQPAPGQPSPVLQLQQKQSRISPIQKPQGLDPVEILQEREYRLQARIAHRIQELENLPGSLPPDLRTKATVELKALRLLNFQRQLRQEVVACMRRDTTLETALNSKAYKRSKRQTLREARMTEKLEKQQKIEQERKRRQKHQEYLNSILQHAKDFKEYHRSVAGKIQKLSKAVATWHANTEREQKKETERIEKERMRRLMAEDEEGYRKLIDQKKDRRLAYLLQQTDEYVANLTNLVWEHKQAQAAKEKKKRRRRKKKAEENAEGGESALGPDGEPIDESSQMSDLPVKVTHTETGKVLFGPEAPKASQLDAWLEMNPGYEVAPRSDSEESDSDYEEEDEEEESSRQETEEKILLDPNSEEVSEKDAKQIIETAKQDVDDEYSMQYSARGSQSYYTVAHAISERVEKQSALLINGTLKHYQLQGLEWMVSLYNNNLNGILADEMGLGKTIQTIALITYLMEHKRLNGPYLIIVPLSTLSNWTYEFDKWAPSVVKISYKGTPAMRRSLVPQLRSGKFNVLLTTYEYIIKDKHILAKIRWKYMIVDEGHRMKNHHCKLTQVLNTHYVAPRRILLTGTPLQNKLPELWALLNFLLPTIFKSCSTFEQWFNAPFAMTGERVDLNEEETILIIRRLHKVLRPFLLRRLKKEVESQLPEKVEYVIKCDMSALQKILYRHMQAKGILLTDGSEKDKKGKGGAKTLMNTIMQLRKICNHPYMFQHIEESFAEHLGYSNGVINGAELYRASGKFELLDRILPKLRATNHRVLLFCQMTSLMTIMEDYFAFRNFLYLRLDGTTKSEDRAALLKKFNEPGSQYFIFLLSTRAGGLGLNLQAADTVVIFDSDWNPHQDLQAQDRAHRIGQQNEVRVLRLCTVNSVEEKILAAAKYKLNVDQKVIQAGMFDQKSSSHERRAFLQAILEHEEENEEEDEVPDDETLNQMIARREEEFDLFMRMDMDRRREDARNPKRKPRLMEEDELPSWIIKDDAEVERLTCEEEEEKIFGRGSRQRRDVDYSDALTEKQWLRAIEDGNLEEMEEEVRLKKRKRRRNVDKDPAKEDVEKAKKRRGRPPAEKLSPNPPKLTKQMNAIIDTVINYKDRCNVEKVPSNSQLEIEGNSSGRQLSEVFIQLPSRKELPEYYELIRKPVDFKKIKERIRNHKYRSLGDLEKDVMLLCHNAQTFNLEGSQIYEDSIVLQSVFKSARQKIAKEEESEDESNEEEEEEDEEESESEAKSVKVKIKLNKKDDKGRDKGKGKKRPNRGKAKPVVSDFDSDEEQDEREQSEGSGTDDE

[8] = Counterscreen for activators of the function of SWI/SNF related, matrix associated, actin dependent regulator of chromatin, subfamily a, member 2 (SMARCA2, BRM): Luminescence-based cell-based high throughput dose response assay to identify non-selective compounds using the VP16 reporter assay.; type: functional
[9] = Shn3 3'UTR reporter inhibitors, dose response, cell-based, Clone20 osteoblasts, firefly luciferase, cherry-picked (AID 624132); type: functional;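 also: firefly luciferase luminescence from reporter carrying the Shn3 3'UTR in osteoblasts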
[10] = HepG2 cell cytotoxicity, dose response, cytotoxicity control for Shn3 inhibitor project, CellTiter-Glo, cherry-picked (AID 624134); type: functional, cell-based
[11] = inhibitors of HIV Env-driven cell fusion, dose response, cherry-pick (AID 652057); type: functional, cell-based
[12] = CEM21 lymphoblast cell cytotoxicity, dose response, cytotoxicity control for viral fusion inhibitor project, CellTiter-Glo luminescence, cherry-picked (AID 652042); type: functional, cell-based;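 also: potency for signal decrease meaning cytotoxicity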
[13] = ZM109 Env clade C HIV-1 fusion inhibitors, dose response, HeLa effector, CEM target cells, luciferase, cherry-pick (AID 652058); type: functional, cell-based
Paired box protein Pax-8 = Paired box protein Pax-8 (Homo sapiens, UniProt Q06710); assay: inhibitors of PAX8-driven TPO luciferase reporter, dose response, RMG-I cells, cherry-pick (AID 687027); type: functional, cell-based;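 also: luciferase reporter driven by Pax8 target thyroperoxidase promoter measured by SteadyGlo luminescence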
Chain of Paired box protein Pax-8 (Q06710 whole entry, the tested form may be a part): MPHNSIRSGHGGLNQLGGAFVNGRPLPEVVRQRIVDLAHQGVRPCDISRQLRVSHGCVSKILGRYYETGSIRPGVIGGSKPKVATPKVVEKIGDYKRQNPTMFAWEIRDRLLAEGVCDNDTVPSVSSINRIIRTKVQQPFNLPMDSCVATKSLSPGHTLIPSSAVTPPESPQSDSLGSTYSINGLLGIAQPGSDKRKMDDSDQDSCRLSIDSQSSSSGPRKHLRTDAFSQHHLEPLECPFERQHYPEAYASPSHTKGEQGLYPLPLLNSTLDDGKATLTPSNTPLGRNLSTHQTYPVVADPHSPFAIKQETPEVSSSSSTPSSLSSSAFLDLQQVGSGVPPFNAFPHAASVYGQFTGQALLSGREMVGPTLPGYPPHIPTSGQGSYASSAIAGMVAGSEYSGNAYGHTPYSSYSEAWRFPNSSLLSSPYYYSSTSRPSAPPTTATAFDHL

[14] = off-target signal loss in HeLa-CEM21 co-culture – HeLa F-luc CTL cells, cherry-picked, counter-screen for HIV-1 Env fusion inhibitor project, dose response (AID 652040); type: functional, cell-based;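 also: potency for signal decrease marking cytotoxic or nonspecific inhibition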
[15] = inhibitors of clade B AD8 Env fusion, dose response, cell-based, cherry-pick (AID 652062); type: functional;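 also: luciferase signal from cell-cell fusion driven by HIV-1 clade B AD8 Env; potency is for inhibitors of fusion seen as a drop in luminescence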
[16] = A549 cell cytotoxicity, dose response, cytotoxicity control, plate reader, cherry-pick, antagonist series (AID 743412); type: functional, cell-based
[17] = HepG2 cell cytotoxicity, dose response, cytotoxicity control, plate reader, cherry-pick, antagonist series (AID 743416); type: functional, cell-based
[18] = LGR2 antagonists, dose response, cell-based, HEK293, CRE-luciferase reporter, cherry pick, set 2 (AID 743343); type: functional;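 also: transfected cells were stimulated with diluted bursicon conditioned medium after compound addition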
[19] = MC4R antagonists, dose response, counter-screen for LGR2 antagonist project, cell-based, plate reader, cherry pick (AID 743444); type: functional;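 also: transfected HEK 293 cells stimulated with alpha-MSH peptide; potency of inhibitors of the alpha-MSH evoked signal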
[20] = molecular target: Fructose-bisphosphate aldolase (Mycobacterium tuberculosis, UniProt P9WQA3); assay: Fluorescence-based biochemical high throughput dose response assay for inhibitors of the fructose-bisphosphate aldolase (FBA) of M. tuberculosis.; type: functional
Chain of Fructose-bisphosphate aldolase (P9WQA3 whole entry): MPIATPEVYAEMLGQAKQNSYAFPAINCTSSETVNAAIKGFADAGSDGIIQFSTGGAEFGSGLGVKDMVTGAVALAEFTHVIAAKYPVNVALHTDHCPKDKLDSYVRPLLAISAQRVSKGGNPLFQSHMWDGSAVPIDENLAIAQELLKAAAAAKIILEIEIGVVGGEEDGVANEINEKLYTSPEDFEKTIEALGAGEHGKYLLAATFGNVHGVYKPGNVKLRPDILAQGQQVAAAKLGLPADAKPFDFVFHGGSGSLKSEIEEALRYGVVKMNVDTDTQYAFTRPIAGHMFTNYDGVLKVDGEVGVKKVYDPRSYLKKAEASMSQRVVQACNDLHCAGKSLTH

[21] = inhibitors of intracellular T. cruzi replication, confirmation, NIH3T3 host cells, beta-gal luminescence (AID 2044); type: functional, cell-based;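 also: intracellular parasites grown in NIH/3T3 mouse fibroblasts as host cells; luminescent beta-galactosidase reporter signal from transgenic T. cruzi replicating inside host cells; inhibitors lower the luminescence signal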
[22] = cytotoxicity toward NIH3T3 fibroblasts, dose response, counter-screen, cell-based, ATP luminescence, mouse fibroblasts (AID 2010); type: functional; conditions: NIH3T3;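 also: cells exposed to compound for about 90 hours before reading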
HeLa = assay: HeLa cell cytotoxicity, dose response, cytotoxicity control, ATP luminescence, cherry-pick samples (AID 687004); type: functional, cell-based; conditions: Homo sapiens
SUMO-activating enzyme [23] = molecular target: T1, SUMO-activating enzyme (Homo sapiens, UniProt Q9UBT2); assay: SUMOylation inhibitor hit validation, confirmation, SUMOylation inhibitor project, biochemical, AlphaScreen (AID 2018); type: functional
T1 sequence (Q9UBE0 whole entry): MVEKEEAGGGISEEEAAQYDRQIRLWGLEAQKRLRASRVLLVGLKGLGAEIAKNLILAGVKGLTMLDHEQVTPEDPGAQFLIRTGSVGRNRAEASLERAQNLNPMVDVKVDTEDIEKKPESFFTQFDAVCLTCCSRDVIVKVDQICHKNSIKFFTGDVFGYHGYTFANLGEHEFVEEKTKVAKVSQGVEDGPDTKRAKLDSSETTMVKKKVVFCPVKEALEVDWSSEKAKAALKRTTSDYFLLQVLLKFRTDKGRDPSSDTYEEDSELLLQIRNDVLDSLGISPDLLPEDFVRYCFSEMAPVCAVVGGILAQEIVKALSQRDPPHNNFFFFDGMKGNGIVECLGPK
T1 sequence (Q9UBT2 whole entry): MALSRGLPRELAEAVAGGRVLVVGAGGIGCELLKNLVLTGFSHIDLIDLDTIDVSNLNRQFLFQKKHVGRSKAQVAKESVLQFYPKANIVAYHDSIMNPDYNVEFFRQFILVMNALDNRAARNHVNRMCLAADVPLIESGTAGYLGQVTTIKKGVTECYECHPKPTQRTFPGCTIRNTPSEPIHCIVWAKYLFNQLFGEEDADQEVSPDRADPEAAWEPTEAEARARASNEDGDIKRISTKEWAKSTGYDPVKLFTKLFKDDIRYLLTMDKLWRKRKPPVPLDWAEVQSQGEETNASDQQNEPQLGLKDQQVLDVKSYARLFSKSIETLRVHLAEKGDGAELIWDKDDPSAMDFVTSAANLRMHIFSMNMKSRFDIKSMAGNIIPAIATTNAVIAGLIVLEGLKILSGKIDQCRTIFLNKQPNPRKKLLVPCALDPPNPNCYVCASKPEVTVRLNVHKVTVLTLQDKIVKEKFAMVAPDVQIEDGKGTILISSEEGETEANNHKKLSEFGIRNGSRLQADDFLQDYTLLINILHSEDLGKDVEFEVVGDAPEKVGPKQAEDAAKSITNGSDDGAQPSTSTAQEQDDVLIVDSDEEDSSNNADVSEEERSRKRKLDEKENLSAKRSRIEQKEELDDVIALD

SUMO-activating enzyme [24] = molecular target: T1, SUMO-activating enzyme; assay: inhibitors of in vitro SUMOylation cascade, primary screen, biochemical, HTRF, uHTS (AID 2006); type: protein-complex assay
Albumin = Albumin (Bos taurus, UniProt P02769); assay: Counterscreen for inhibitors of T-cell receptor (TCR)-CD3 interaction: Fluorescence-based biochemical high throughput dose response assay to identify inhibitors of T-cell receptor (TCR)-CD3 interaction using a TAMRA-labeled BSA probe.; type: functional
Chain of Albumin (P02769 whole entry): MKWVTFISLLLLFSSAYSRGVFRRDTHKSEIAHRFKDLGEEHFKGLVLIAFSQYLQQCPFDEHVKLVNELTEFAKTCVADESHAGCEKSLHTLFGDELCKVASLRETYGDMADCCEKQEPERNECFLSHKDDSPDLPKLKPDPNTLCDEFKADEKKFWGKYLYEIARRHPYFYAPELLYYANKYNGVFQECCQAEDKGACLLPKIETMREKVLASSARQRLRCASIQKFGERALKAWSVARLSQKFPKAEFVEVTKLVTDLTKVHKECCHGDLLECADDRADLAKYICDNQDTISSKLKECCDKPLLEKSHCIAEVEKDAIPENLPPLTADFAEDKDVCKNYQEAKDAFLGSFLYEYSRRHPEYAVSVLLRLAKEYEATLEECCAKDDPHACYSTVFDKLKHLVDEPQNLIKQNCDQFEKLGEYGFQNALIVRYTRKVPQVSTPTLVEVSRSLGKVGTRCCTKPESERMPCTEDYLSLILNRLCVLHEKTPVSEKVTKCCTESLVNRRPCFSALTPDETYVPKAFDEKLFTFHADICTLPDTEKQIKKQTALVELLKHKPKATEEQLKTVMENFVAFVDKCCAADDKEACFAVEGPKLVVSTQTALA

## O=C(NCCOc1ccccc1F)C1CC(=O)N(Cc2ccccc2)C1 (centres undefined)
[1]
  AC50: > 52 µM (inactive)

## C[C@@H]1CN([C@@H](C)CO)C(=O)c2cc(NC(=O)Nc3cccc4ccccc34)ccc2O[C@@H](C)CCCCO[C@@H]1CN(C)CC1CCCCC1
[2]
  AC50: 11.6 µM (active)
[3]
  AC50: 6.05 µM (active)
[4]
  AC50: 30.5 µM (active)

## CC(C)c1ccc(/C=N/NC(=O)c2c(Cl)cnn2C)cc1
[5]
  EC50: 9.9 µM (active)
[6]
  EC50: 0.251 µM (active)
H4
  EC50: 27.5 µM (active)
[7]
  EC50: > 91.2 µM (inactive)
[8]
  EC50: > 91.2 µM (inactive)

## O=C(Nc1cccc(-c2ccc(N3CCCCC3)nn2)c1)C(F)(F)F
[9]
  AC50: 9.07 µM (active)
[10]
  AC50: 33.1 µM (active)
[11]
  AC50: 3.47 µM (active)
[12]
  AC50: 34.1 µM (active)
[13]
  AC50: 34.1 µM (active)
Paired box protein Pax-8
  AC50: 3.04 µM (active)
[14]
  AC50: 9.6 µM (active)
[15]
  AC50: 6.31 µM (active)
[16]
  AC50: 30.2 µM (active)
[17]
  AC50: 43.6 µM (active)
[18]
  AC50: 2.61 µM (active)
[19]
  AC50: 1.41 µM (active)

## Cc1ccc(-c2nc3ncccc3o2)cc1NC(=O)C(C)C
[20]
  IC50: 1.5 µM (active)

## CCOc1ccc(C(=O)NC(=S)Nc2ccccc2N2CCC(C)CC2)cc1[N+](=O)[O-]
[21]
  EC50: 1.32 µM (active)
[22]
  EC50: > 60 µM (not active)
HeLa
  AC50: > 52 µM (inactive)

## Cc1c(NC(=S)N/N=C/c2cc([N+](=O)[O-])ccc2O)c(=O)n(-c2ccccc2)n1C
SUMO-activating enzyme [23]
  IC50: 1.64 µM (active)
SUMO-activating enzyme [24]
  IC50: 11.4 µM (active)
Albumin
  IC50: > 94.1 µM (inactive)

## CC(=O)Nc1ccc2c(c1)C(=O)N(C)[C@@H]1CC[C@H](CC(=O)NC3CCCCC3)O[C@H]1CO2
[3]
  AC50: 0.457 µM (active)
